Data published in PubChem BioAssay (NCI).
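Dose response: 5 concentrations. Exposure: 48 h. Format: 96-well plates. Endpoint: linear interpolation; highest concentration if not reached. GI50 marks 50% less growth. TGI denotes the concentration required for complete inhibition of growth.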

How the values were obtained:
Assay in all cases: DTP human tumour cell line panel, 48 h
[1] = system: 786-0 renal
[2] = system: A498 renal
[3] = system: A549 NSCLC
[4] = system: ACHN renal
[5] = system: BT-549 breast
[6] = system: CAKI-1 renal
[7] = system: CCRF-CEM leukemia
[8] = system: COLO 205 colon
[9] = system: DU-145 prostate
[10] = system: EKVX NSCLC
[11] = system: HCC-2998 colon
[12] = system: HCT-116 colon
[13] = system: HCT-15 colon
[14] = system: HL-60(TB) leukemia
[15] = system: HOP-62 NSCLC
[16] = system: HOP-92 NSCLC
[17] = system: HS 578T breast
[18] = system: HT29 colon
[19] = system: IGROV1 ovarian
[20] = system: K-562 leukemia
[21] = system: KM12 colon
[22] = system: LOX IMVI melanoma
[23] = system: M14 melanoma
[24] = system: MALME-3M melanoma
[25] = system: MCF7 breast
[26] = system: MDA-MB-231 breast
[27] = system: MDA-MB-435
[28] = system: MOLT-4 leukemia
[29] = system: NCI-H226 lung
[30] = system: NCI-H23 lung
[31] = system: NCI-H460 lung
[32] = system: NCI-H522 lung
[33] = system: NCI/ADR-RES ovarian
[34] = system: OVCAR-3 ovarian
[35] = system: OVCAR-5 ovarian
[36] = system: PC-3 prostate
[37] = system: RPMI-8226 leukemia
[38] = system: RXF 393 renal
[39] = system: SF-268 CNS
[40] = system: SF-295 CNS
[41] = system: SF-539 CNS
[42] = system: SK-MEL-2 melanoma
[43] = system: SK-MEL-28 melanoma
[44] = system: SK-MEL-5 melanoma
[45] = system: SK-OV-3 ovarian
[46] = system: SN12C renal
[47] = system: SNB-19 CNS
[48] = system: SNB-75 CNS
[49] = system: SR leukemia
[50] = system: SW-620 colon
[51] = system: T-47D breast
[52] = system: TK-10 renal
[53] = system: U251 CNS
[54] = system: UACC-257 melanoma
[55] = system: UACC-62 melanoma
[56] = system: UO-31 renal

O=C(c1ccccc1)c1c(C(F)(F)F)n([O-])c2ccc(F)cc2[n+]1=O
GI50 [1]: 1240 nM | TGI [1]: 2520 nM | GI50 [2]: 2380 nM | TGI [2]: 6040 nM | GI50 [3]: 749 nM | TGI [3]: 2970 nM | GI50 [4]: 1090 nM | TGI [4]: 2340 nM | GI50 [5]: 252 nM | TGI [5]: 788 nM | GI50 [6]: 1500 nM | TGI [6]: 2850 nM | GI50 [7]: 349 nM | TGI [7]: > 100000 nM | GI50 [8]: 383 nM | TGI [8]: 926 nM | GI50 [9]: 1300 nM | TGI [9]: 2570 nM | GI50 [10]: 992 nM | TGI [10]: 2440 nM | GI50 [11]: 773 nM | TGI [11]: 1900 nM | GI50 [12]: 307 nM | TGI [12]: 1020 nM | GI50 [13]: 260 nM | TGI [13]: 758 nM | GI50 [14]: 188 nM | TGI [14]: 869 nM | GI50 [15]: 1340 nM | TGI [15]: 2710 nM | GI50 [16]: 211 nM | TGI [16]: 394 nM | GI50 [17]: 1440 nM | TGI [17]: 5080 nM | GI50 [18]: 502 nM | TGI [18]: 1790 nM | GI50 [19]: 517 nM | TGI [19]: 1980 nM | GI50 [20]: 348 nM | TGI [20]: 1770 nM | GI50 [21]: 872 nM | TGI [21]: 2470 nM | GI50 [22]: 167 nM | TGI [22]: 317 nM | GI50 [23]: 1280 nM | TGI [23]: 2670 nM | GI50 [24]: 1370 nM | TGI [24]: 3040 nM | GI50 [25]: 373 nM | TGI [25]: 1670 nM | GI50 [26]: 662 nM | TGI [26]: 1630 nM | GI50 [27]: 1300 nM | TGI [27]: 2660 nM | GI50 [28]: 362 nM | TGI [28]: 1480 nM | GI50 [29]: 1550 nM | TGI [29]: 3020 nM | GI50 [30]: 980 nM | TGI [30]: 2590 nM | GI50 [31]: 663 nM | TGI [31]: 2290 nM | GI50 [32]: 911 nM | TGI [32]: 2590 nM | GI50 [33]: 1780 nM | TGI [33]: 4810 nM | GI50 [34]: 501 nM | TGI [34]: 1570 nM | GI50 [35]: 1750 nM | TGI [35]: 4130 nM | GI50 [36]: 252 nM | TGI [36]: 828 nM | GI50 [37]: 551 nM | TGI [37]: 1930 nM | GI50 [38]: 434 nM | TGI [38]: 1450 nM | GI50 [39]: 945 nM | TGI [39]: 2400 nM | GI50 [40]: 1760 nM | TGI [40]: 3480 nM | GI50 [41]: 1440 nM | TGI [41]: 2880 nM | GI50 [42]: 1470 nM | TGI [42]: 3350 nM | GI50 [43]: 1100 nM | TGI [43]: 2320 nM | GI50 [44]: 778 nM | TGI [44]: 2180 nM | GI50 [45]: 1890 nM | TGI [45]: 3390 nM | GI50 [46]: 1020 nM | TGI [46]: 2570 nM | GI50 [47]: 1870 nM | TGI [47]: 4010 nM | GI50 [48]: 1360 nM | TGI [48]: 2650 nM | GI50 [49]: 95.7 nM | GI50 [50]: 147 nM | TGI [50]: 306 nM | GI50 [51]: 655 nM | TGI [51]: 2510 nM | GI50 [52]: 1630 nM | TGI [52]: 3180 nM | GI50 [53]: 1070 nM | TGI [53]: 2260 nM | GI50 [54]: 1540 nM | TGI [54]: 3230 nM | GI50 [55]: 882 nM | TGI [55]: 2180 nM | GI50 [56]: 1380 nM | TGI [56]: 2740 nM
